The values below come from patent US20250002470A1, “NITROGEN-CONTAINING COMPOUND, PREPARATION METHOD THEREFOR AND APPLICATION THEREOF” (ZHEJIANG AIXPLORER BIOTECH CO., LTD., priority 2021, published 2025).

The target in data set [1] is hERG potassium channel (Homo sapiens, UniProt Q12809). Nature of the data set: Whole-cell patch-clamp (QPatch) of hERG current in HEK293 cells stably expressing hERG. Format: cell-based. The method, then:
In this study, a whole-cell patch-clamp technique was used to study the inhibitory effect of compounds on hERG potassium channels and to evaluate the risk of ventricular repolarization toxicity.
The HEK293 cell line stably expressing the hERG potassium channel cells was purchased from Creacell, Inc. (Cat. No. A-0320).
The HEK293 cell line that can stably express the hERG potassium channel, was cultured in DMEM medium containing 10% fetal bovine serum and 0.8 mg/mL G418 at 37° C. and 5% carbon dioxide.
Before the test, the cells were separated with TrypLET Express, centrifuged after adding medium to terminate digestion, resuspended the cell count, adjusted the cell density to 2-3×10^6 cells/mL, and then lightly mixed the cells on a room temperature equilibration shaker for 15-20 min.
Electrophysiological assays were performed using a fully automated patch-clamp QPatch 48 X (Sophion) device. The prepared cells were placed on a centrifuge on the Qpatch bench, the cells were washed using multiple centrifugation/suspension methods, and the cell culture medium was replaced with extracellular fluid. Remove an MTP-96 plate and place it in the location of the MTP source. Remove the QPlate chip and subsequently place the QPlate at the Qplate source location. The robotic arm scans the MTP-96 board and the QPlate chip barcode and grabs it to the measuring station. Draw the intracellular and external fluid from the liquid pool and add them to the intracellular fluid pool, cell and test cell pool of the QPlate chip, respectively. At the measuring station, all measuring sites on the QPlate undergo initial quality control. The quality control process includes aspirating the cell suspension from the cell vessel of the centrifuge and positioning the cells to the chip wells via a pressure controller to establish a high-resistance seal and create a whole-cell recording pattern.
The voltage stimulation protocol for whole-cell patch-clamp recording of whole-cell hERG potassium currents is as follows: the cell membrane voltage clamps at −80 mV when a whole-cell closure is formed. The clamping voltage is depolarized from −80 mV to −50 mV for 0.5 s (as a leakage current detection), then steps to 30 mV for 2.5 s, and then quickly recovers to −50 mV for 4 s to excite the tail current of the hERG channel. The data were collected repeatedly every 10 s to observe the effect of the drug on the hERG tail current. −50 mV stimulation at 0.5 s was used as the leakage current detection. The test data is collected by Qpatch and stored in the connected service station.
First, the current after the effect of each drug concentration and the blank control current are normalized 0, and then the inhibition rate corresponding to each drug concentration is calculated.
Calculate the mean and standard error for each concentration and calculate the semi-inhibitory concentration for each compound using the following Formula:
Y=Bottom+(Top−Bottom)/(1+10^((LogIC50−X)*HillSlope)) The above Formula was used to fit the dose-dependent effect nonlinearly, where C represents the test substance concentration, IC50 is the semi-inhibitory concentration, and h represents the Hill coefficient. Curve fitting and IC50 calculations were performed using Graphpad software.
(In general: Patch clamp records ionic current or voltage across a cell membrane.)

A short description of data set [2]: In vivo pharmacokinetic evaluation in mice (IV and PO). Particulars: CD-1 mice; for AUC / clearance / half-life / Vd / Cmax: mouse, plasma; for Vd: read-out: Vss. The method, then: CD-1 mice, after fasting overnight (free drinking), are divided into tail vein (IV) and gavage administration (PO) groups. The tail vein administration group collected 0.1 mL of blood from the orbital venous plexus before administration and 5 minutes, 15 minutes, 0.5 hours, 1 hour, 2 hours, 4 hours, 8 hours, 12 hours, and 24 hours after administration, and sample centrifugation at 4° C. for 5 minutes, and stored at −70° C. for testing. […] The plasma parent drug concentration was determined by LC-MS/MS.

For data set [3], the target named is T1, NLRP3 (Homo sapiens, UniProt Q96P20).
T1 construct: endogenous in cells; host or cells: THP-1 cells (IFN-γ differentiated, LPS primed, ATP stimulated)
T1 sequence (Q96P20 whole entry): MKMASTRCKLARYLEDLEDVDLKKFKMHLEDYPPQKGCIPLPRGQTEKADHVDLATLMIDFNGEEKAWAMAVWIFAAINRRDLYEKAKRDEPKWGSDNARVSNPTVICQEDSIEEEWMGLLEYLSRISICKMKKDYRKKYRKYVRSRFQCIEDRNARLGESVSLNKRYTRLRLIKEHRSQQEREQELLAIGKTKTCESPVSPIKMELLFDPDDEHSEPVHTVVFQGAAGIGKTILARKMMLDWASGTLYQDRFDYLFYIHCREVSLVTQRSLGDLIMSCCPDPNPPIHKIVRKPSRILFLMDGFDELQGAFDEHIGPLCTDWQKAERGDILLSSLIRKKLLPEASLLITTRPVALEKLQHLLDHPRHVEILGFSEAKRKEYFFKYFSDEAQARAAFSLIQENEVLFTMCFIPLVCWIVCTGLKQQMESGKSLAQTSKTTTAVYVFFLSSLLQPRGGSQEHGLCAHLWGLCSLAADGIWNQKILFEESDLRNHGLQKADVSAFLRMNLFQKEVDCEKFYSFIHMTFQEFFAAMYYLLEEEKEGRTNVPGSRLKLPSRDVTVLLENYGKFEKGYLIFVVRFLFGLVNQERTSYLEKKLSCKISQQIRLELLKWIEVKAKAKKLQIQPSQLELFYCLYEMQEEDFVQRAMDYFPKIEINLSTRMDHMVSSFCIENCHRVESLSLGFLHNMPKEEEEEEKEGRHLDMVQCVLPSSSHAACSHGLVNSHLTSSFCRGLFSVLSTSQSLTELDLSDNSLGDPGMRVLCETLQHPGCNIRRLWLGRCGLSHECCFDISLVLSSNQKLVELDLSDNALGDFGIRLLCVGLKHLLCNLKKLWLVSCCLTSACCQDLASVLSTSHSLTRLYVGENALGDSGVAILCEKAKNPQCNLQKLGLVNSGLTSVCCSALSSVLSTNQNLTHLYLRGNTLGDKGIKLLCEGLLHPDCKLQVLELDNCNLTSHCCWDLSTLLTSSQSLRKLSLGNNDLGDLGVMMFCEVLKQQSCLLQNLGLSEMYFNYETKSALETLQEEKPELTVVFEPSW
Description: IL-1β (interleukin-1β) secretion in IFN-γ-differentiated, LPS/ATP-stimulated THP-1 cells (half inhibition rate of NLRP3). Type of data set: cell-based. Particulars: IFN-γ 25 ng/mL, LPS 50 ng/mL, ATP 5 mM. The method, boiled down: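 IFN-γ-differentiated THP-1 cells primed with LPS (final 50 ng/mL, 4 h, serum-free), then given compound for 1 h and ATP (final 5 mM) for 1 h at 37 °C. Secreted IL-1β in supernatant quantified by sandwich ELISA (mAb Mt175 capture, biotinylated mAb7P10 detection, streptavidin-HRP/TMB, 450 nm).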

Chain of hERG potassium channel (Q12809 whole entry): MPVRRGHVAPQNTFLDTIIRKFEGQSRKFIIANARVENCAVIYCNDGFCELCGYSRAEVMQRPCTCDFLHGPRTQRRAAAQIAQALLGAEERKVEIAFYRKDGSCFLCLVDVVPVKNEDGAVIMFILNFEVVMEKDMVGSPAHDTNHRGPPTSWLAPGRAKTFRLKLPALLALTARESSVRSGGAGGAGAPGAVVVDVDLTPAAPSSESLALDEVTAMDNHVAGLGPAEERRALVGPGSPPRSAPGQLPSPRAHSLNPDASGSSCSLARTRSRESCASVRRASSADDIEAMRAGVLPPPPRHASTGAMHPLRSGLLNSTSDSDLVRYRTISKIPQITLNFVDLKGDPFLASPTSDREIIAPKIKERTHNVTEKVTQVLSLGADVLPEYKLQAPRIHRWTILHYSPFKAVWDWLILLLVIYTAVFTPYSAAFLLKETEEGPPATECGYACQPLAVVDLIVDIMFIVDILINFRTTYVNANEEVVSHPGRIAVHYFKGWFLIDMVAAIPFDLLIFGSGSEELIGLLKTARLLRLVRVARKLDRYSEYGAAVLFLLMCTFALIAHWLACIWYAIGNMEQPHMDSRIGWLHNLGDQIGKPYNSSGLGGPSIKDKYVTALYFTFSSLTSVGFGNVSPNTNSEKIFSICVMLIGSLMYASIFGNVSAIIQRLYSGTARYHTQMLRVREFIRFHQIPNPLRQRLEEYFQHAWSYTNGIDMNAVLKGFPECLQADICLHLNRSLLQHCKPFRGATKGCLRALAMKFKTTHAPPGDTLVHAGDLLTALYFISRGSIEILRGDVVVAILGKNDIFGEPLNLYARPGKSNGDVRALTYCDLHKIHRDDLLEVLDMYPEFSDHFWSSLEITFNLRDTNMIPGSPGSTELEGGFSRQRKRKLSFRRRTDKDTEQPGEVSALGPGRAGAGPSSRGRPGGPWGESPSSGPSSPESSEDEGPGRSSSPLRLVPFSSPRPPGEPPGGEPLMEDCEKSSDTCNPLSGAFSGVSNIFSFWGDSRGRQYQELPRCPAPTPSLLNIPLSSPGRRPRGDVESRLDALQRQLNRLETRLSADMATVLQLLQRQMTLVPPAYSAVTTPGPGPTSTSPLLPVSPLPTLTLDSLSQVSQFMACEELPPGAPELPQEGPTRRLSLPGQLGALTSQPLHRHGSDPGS

Take `Cc1nc(N[C@@H]2CCCN([C@H](C)CO)C2)nnc1-c1ccc(C(F)(F)F)cc1O` [Embodiment 148]: the IC50 – broadly, the midpoint of a concentration-inhibition curve – in data set [1] was over 30 µM. Further, in data set [2] (PO, 20 mg/kg), the F worked out at 95.2%; the AUC (in general, the area under the concentration-time curve, a measure of exposure) is 30100 ng·h/mL; the Cmax (usually the peak of the concentration-time curve) came out at 7730 ng/mL; the half-life – broadly, how long it takes for the measured level to halve – was 221 min. In addition, in data set [2] (IV, 3 mg/kg), the AUC was found to be 4750 ng·h/mL, the clearance is 10.5 mL/min/kg, the half-life is 250 min and the Vd was determined as 3 L/kg. The molecule also yielded a half-inhibitory concentration (IC50) in data set [3] of 14.4 nM.
In the case of `Cc1nc(N[C@@H]2CCCN(CCO)C2)nnc1-c1ccc(C(F)(F)F)cc1O` [Embodiment 44, (R)-2-(3-((1-(2-hydroxyethyl)piperidin-3-yl)amino)-5-methyl-1,2,4-triazin-6-yl)-5-(trifluoromethyl)phenol], the IC50 in data set [1] was over 30 µM. In data set [2] (PO, 20 mg/kg), the F came to 95.3%, the AUC stood at 18800 ng·h/mL, the concentration peaked (Cmax) at 4530 ng/mL and the half-life is 217 min. Further, in data set [2] (IV, 3 mg/kg), the AUC came out at 2950 ng·h/mL, the clearance was 16.8 mL/min/kg, the half-life was 241 min and the Vd turned out to be 4.35 L/kg. Moreover, the IC50 in data set [3] stood at 0.4 nM.
In data set [1], `Oc1cc(C(F)(F)F)ccc1-c1nnc(N[C@@H]2CCCC[C@H]2O)c2cc(F)ccc12` [Embodiment 136] displayed an IC50 of over 30 µM. In data set [2] (PO, 20 mg/kg), this molecule gave an F of 93.8%, an AUC of 20300 ng·h/mL, a Cmax of 6520 ng/mL and a half-life of 340 min. In data set [2] (IV, 3 mg/kg), the AUC was 3250 ng·h/mL, the clearance was 15.1 mL/min/kg, the half-life is 364 min and the Vd was determined as 2.35 L/kg. Moreover, in data set [3], the IC50 is 4.4 nM.
For the molecule `Cc1nc(N[C@@H]2CCCN(C(C)(C)CO)C2)nnc1-c1ccc(C(F)(F)F)cc1O` [Embodiment 132], the IC50 in data set [1] is over 30 µM. Moreover, in data set [2] (PO, 20 mg/kg), the F worked out at 88.5%, the AUC came to 18600 ng·h/mL, the Cmax is 3070 ng/mL and the half-life was 152 min. In data set [2] (IV, 3 mg/kg), the AUC is 3160 ng·h/mL, the clearance was 15.8 mL/min/kg, the half-life is 169 min and the Vd came to 3.56 L/kg. This molecule yielded an IC50 in data set [3] of 4.1 nM.
Molecule `Cc1nc(N[C@@H]2CCCN([C@@H](C)CO)C2)nnc1-c1ccc(C(F)(F)F)cc1O` [Embodiment 147] had an IC50 in data set [1] of over 30 µM. In data set [2] (PO, 20 mg/kg), this molecule gave an F of 78.7%, an AUC of 17200 ng·h/mL, a Cmax of 5710 ng/mL and a half-life of 166 min. In data set [2] (IV, 3 mg/kg), the AUC was 3290 ng·h/mL, the clearance is 15.2 mL/min/kg, the half-life is 197 min and the Vd worked out at 3.39 L/kg. In data set [3], this molecule displayed an IC50 of 9 nM.
